From ChEMBL document CHEMBL6092178, “Discovery of a novel KV7.2/7.3 channels agonist for the treatment of neuropathic pain” (Eur J Med Chem, 2024)
pEC50, pIC50: −log10 of the molar value. One block for each compound: values may come before it. Active and inactive are the calls of the source.

Assays:
[1] = target: Voltage-gated potassium channel, KQT; KCNQ2(Kv7.2)/KCNQ3(Kv7.3) (Homo sapiens, UniProt O43525+O43526); assay: Agonist activity at human KCNQ2/3 transfected in human HEK293 cells incubated for 30 mins by fluorimetric assay; type: cell-based
Voltage-gated potassium channel, KQT; KCNQ2(Kv7.2)/KCNQ3(Kv7.3), sequence (O43526 whole entry): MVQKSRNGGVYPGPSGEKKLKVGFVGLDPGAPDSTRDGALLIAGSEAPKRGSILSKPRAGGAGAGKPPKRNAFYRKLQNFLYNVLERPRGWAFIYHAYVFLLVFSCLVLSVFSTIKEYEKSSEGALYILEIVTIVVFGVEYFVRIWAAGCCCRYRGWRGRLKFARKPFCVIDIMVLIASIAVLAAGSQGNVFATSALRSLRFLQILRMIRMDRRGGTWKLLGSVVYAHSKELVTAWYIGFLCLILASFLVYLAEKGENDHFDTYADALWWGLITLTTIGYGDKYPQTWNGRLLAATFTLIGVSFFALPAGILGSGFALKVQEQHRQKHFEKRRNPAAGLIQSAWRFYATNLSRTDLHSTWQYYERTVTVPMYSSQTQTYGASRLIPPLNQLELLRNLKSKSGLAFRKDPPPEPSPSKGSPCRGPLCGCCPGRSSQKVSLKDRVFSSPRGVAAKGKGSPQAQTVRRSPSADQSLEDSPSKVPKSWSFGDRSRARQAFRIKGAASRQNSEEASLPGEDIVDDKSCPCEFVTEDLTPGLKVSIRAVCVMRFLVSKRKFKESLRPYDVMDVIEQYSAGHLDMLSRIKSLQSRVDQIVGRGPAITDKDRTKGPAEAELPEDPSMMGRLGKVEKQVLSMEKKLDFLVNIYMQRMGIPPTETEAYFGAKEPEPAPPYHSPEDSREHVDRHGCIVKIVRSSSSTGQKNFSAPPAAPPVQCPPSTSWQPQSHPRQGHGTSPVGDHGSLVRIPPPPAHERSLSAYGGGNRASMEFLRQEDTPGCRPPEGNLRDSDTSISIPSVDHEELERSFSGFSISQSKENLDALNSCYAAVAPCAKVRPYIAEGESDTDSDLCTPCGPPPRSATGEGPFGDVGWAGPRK
Voltage-gated potassium channel, KQT; KCNQ2(Kv7.2)/KCNQ3(Kv7.3), sequence (O43525 whole entry): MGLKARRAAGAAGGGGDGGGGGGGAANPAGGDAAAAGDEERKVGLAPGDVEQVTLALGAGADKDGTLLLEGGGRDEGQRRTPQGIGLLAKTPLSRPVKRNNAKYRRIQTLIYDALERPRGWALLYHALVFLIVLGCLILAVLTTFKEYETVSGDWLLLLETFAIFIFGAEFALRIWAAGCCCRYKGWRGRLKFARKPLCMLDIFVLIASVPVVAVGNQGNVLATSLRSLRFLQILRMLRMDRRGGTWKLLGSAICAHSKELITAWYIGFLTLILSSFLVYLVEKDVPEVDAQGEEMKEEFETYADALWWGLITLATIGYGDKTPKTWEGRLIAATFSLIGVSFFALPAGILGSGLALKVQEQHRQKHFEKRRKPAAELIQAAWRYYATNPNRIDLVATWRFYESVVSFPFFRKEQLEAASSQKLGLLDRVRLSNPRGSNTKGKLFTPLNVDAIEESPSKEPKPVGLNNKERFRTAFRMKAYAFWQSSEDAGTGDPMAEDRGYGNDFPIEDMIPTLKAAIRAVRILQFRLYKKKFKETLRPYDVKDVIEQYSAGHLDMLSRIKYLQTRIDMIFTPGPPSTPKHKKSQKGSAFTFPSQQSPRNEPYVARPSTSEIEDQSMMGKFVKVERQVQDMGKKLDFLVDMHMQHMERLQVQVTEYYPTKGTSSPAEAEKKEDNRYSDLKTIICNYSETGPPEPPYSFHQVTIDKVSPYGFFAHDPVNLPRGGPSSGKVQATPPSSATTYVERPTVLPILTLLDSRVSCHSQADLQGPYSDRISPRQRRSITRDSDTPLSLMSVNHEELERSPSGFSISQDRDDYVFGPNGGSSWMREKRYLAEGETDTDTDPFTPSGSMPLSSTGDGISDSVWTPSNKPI

[2] = target: Glutamate [NMDA] receptor (Homo sapiens) (UniProt Q05586+Q12879+Q13224+O15399+O60391+Q14957+Q8TCU5); assay: Inhibition of NMDA receptor (unknown origin) relative to control; type: protein-complex assay; settings: concentration not given here
[3] = test system: Rattus norvegicus; assay: Antiallodynic activity in CCI-induced neuropathic pain Sprague-Dawley rat model assessed as attenuation of mechanical allodynia at 20 mg/kg, IG administration pretreated with compound for 1 hrs and measured on day 15 after surgery; type: functional, organism-based; settings: time 15.0 day
[4] = target: Transient receptor potential cation channel subfamily V member 1 (Homo sapiens) (UniProt Q8NER1); assay: Inhibition of TRPV-1 (unknown origin) relative to control; settings: concentration not given here
Transient receptor potential cation channel subfamily V member 1 (Homo sapiens), sequence (Q8NER1 whole entry): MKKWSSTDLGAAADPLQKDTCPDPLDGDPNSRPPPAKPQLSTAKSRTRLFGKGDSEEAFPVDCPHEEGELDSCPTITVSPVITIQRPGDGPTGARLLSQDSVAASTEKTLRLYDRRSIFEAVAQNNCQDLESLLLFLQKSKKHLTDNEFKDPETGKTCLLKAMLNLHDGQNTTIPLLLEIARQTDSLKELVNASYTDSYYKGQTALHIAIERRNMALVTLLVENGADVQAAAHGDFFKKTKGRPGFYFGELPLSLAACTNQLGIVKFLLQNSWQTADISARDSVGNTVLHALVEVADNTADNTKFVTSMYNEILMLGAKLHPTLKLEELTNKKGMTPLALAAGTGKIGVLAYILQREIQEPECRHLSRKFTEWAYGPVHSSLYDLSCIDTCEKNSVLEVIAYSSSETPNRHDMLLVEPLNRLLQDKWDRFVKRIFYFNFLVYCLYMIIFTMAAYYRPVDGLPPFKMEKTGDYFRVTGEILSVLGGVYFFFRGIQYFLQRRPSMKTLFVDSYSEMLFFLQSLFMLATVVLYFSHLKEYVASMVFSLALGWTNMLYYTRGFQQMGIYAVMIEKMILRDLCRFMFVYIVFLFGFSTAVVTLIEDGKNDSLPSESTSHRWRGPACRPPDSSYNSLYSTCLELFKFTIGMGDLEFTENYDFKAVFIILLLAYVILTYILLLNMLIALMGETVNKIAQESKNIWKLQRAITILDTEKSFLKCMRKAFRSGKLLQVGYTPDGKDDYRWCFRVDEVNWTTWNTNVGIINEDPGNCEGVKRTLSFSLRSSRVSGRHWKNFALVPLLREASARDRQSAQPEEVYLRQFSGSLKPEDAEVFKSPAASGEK

[5] = test system: Rattus norvegicus; assay: Antiallodynic activity in IG dosed spinal nerve ligation-induced neuropathic pain male Sprague-Dawley rat model assessed as mechanical withdrawal threshold pretreated with compound for 1 hr and measured on day 15 after surgery; type: functional
[6] = test system: Rattus norvegicus; assay: Antiallodynic activity against oxaliplatin-induced neuropathic pain Sprague-Dawley rat model assessed as increased mechanical withdrawal threshold at 40 mg/kg, IG measured after 48 hrs; type: functional, organism-based; settings: time 1.0 hrs
[7] = Clearance in male Sprague-Dawley rat at 5 mg/kg, iv measured upto 24 hrs by LC-MS/MS analysis; type: ADME, organism-based; settings: in vivo
[8] = AUC (0 to infinity) in male Sprague-Dawley rat at 30 mg/kg, IG measured upto 24 hrs by LC-MS/MS analysis; type: ADME, organism-based; settings: in vivo, po
[9] = Hepatotoxicity in rat assessed as change in serum total bilirubin (TBIL) level at 10 to 40 mg/kg, IG administered for 28 days and measured after 14 days; type: toxicity, organism-based; settings: in vivo, po, 672 h, dose 10-40 mg/kg, time 28 day
[10] = test system: Mus musculus; assay: Induction of motor coordination impairment in mouse at 10 to 40 mg/kg, IG measured upto 120 mins by rotarod method; type: functional, organism-based; settings: dose 10-40 mg/kg
[11] = Cmax in male Sprague-Dawley rat at 30 mg/kg, IG measured upto 24 hrs by LC-MS/MS analysis; type: ADME, organism-based; settings: in vivo, po
[12] = Cmax in male Sprague-Dawley rat at 5 mg/kg, iv measured upto 24 hrs by LC-MS/MS analysis; type: ADME, organism-based; settings: in vivo
[13] = Clearance in male Sprague-Dawley rat at 30 mg/kg, IG measured upto 24 hrs by LC-MS/MS analysis; type: ADME, organism-based; settings: in vivo, po
[14] = species: Rattus norvegicus; assay: Analgesic activity in streptozotocin-induced diabetic peripheral neuropathic pain male Sprague-Dawley rat model pretreated with compound for 1 hrs and measured on day 15 after surgery; type: functional; settings: dose 10-40 mg/kg
[15] = Acute toxicity in mouse assessed as lethal dose at ip administration measured after 7 days; type: organism-based; settings: in vivo, time 7 day
[16] = test system: Rattus norvegicus; assay: Antiallodynic activity in CCI-induced neuropathic pain Sprague-Dawley rat model assessed as attenuation of mechanical allodynia at IG administration pretreated with compound for 1 hrs and measured on day 15 after surgery; type: functional; settings: dose 10-40 mg/kg
[17] = target: GABA-A receptor; anion channel (Homo sapiens) (UniProt P14867+P47870+P18507+P28472+P48169+Q99928+Q9UN88+P34903+O00591+O14764+Q8N1C3+P18505+P78334+P47869+P31644+Q16445); assay: Inhibition of GABAA receptor (unknown origin) relative to control; type: protein-complex assay; settings: concentration not given here
[18] = test system: Rattus norvegicus; assay: Antiallodynic activity in spinal nerve ligation-induced neuropathic pain male Sprague-Dawley rat model assessed as mechanical withdrawal threshold at 40 mg/kg, IG pretreated with compound for 1 hr and measured on day 15 after surgery; type: functional, organism-based; settings: time 15.0 day
[19] = species: Homo sapiens; assay: Inhibition of serotonin receptor (unknown origin) relative to control; settings: concentration not given here
[20] = Half life in male Sprague-Dawley rat at 30 mg/kg, IG measured upto 24 hrs by LC-MS/MS analysis; type: ADME, organism-based; settings: in vivo, po
[21] = target: Voltage-gated inwardly rectifying potassium channel KCNH2 (Homo sapiens, UniProt Q12809); assay: Inhibition of hERG expressed in HEK293 cells by patch clamp method; type: toxicity, cell-based
Voltage-gated inwardly rectifying potassium channel KCNH2, sequence (Q12809 whole entry): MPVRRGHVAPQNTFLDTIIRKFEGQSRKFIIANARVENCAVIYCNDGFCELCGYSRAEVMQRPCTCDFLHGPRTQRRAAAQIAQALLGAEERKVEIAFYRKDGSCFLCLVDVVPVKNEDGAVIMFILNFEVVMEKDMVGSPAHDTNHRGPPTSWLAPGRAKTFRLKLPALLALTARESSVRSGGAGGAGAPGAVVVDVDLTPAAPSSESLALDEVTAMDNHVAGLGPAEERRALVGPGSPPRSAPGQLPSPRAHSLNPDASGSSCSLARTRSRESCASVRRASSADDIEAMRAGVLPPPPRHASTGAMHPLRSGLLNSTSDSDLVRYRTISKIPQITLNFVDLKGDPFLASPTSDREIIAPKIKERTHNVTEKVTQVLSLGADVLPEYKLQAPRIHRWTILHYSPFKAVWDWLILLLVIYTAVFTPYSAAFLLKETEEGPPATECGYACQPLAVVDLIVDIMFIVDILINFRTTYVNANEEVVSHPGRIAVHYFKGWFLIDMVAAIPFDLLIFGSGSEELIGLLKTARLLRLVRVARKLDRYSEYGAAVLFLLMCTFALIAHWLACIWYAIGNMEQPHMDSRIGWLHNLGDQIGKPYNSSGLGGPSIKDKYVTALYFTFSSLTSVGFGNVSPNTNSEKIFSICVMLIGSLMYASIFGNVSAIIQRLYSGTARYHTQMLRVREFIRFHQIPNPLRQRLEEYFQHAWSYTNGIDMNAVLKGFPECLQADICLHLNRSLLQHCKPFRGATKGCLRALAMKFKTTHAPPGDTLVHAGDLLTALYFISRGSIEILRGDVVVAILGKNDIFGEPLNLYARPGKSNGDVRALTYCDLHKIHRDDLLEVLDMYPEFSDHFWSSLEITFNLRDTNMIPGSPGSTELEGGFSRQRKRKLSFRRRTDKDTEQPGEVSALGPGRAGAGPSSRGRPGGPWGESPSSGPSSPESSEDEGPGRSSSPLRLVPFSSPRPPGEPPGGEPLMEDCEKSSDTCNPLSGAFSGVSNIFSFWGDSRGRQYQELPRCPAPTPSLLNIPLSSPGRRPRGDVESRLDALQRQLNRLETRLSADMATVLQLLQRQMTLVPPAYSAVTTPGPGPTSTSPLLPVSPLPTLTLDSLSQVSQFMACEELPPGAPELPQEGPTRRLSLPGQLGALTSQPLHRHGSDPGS

[22] = target: Mu-type opioid receptor (Homo sapiens) (UniProt P35372); assay: Inhibition of mu-opioid receptor (unknown origin) relative to control; settings: concentration not given here
Mu-type opioid receptor (Homo sapiens), sequence (P35372 whole entry): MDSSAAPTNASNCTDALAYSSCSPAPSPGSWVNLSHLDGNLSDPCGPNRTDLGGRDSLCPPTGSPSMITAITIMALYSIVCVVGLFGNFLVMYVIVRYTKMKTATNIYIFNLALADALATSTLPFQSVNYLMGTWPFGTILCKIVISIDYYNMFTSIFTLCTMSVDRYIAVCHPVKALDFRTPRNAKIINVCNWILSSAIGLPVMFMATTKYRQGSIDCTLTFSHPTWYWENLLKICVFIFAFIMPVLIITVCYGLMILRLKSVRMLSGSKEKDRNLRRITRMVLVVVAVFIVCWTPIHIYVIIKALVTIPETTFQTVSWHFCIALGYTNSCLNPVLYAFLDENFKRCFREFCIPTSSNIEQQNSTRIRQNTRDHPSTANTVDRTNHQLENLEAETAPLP

[23] = target: Voltage-gated potassium channel, KQT; KCNQ2(Kv7.2)/KCNQ3(Kv7.3) (Homo sapiens) (UniProt O43526+O43525); assay: Agonist activity at human KCNQ2/3 transfected in human HEK293 cells incubated for 30 mins by fluorimetric assay relative to flupirtine; type: cell-based; settings: filed as agonist
[24] = Acute toxicity in mouse assessed as lethal dose at iv administration measured after 7 days; type: organism-based; settings: in vivo, time 7 day
[25] = Acute toxicity in mouse assessed as lethal dose at IG administration measured after 7 days; settings: in vivo, po, time 7 day
[26] = AUC (0 to infinity) in male Sprague-Dawley rat at 5 mg/kg, iv measured upto 24 hrs by LC-MS/MS analysis; type: ADME, organism-based; settings: in vivo
[27] = AUC (0 to t) in male Sprague-Dawley rat at 5 mg/kg, iv measured upto 24 hrs by LC-MS/MS analysis; type: ADME, organism-based; settings: in vivo
[28] = species: Homo sapiens; assay: Inhibition of voltage-gated sodium channel Nav 1.7 (unknown origin) relative to control; settings: concentration not given here
[29] = test system: Rattus norvegicus; assay: Analgesic activity in streptozotocin-induced diabetic peripheral neuropathic pain male Sprague-Dawley rat model at 10 to 40 mg/kg pretreated with compound for 1 hrs and measured on day 15 after surgery; type: functional, organism-based; settings: dose 10-40 mg/kg
[30] = test system: Rattus norvegicus; assay: Antinociceptive activity against formalin-induced pain in male Sprague-Dawley rat assessed as reduction in nociceptive response at 20 mg/kg, IG pretreated for 5 mins followed by formalin challenge and measured for 10 to 60 mins (phase II); type: functional, organism-based
[31] = Oral bioavailability in male Sprague-Dawley rat at 30 mg/kg measured upto 24 hrs by LC-MS/MS analysis; type: ADME, organism-based; settings: in vivo
[32] = Hepatotoxicity in rat assessed as change in serum ALP level at 10 to 40 mg/kg, IG administered for 28 days and measured after 14 days; type: toxicity, organism-based; settings: in vivo, po, 672 h, dose 10-40 mg/kg, time 28 day
[33] = target: Histamine H3 receptor (Homo sapiens) (UniProt Q9Y5N1); assay: Inhibition of H3 receptor (unknown origin) relative to control; settings: concentration not given here
Histamine H3 receptor (Homo sapiens), sequence (Q9Y5N1 whole entry): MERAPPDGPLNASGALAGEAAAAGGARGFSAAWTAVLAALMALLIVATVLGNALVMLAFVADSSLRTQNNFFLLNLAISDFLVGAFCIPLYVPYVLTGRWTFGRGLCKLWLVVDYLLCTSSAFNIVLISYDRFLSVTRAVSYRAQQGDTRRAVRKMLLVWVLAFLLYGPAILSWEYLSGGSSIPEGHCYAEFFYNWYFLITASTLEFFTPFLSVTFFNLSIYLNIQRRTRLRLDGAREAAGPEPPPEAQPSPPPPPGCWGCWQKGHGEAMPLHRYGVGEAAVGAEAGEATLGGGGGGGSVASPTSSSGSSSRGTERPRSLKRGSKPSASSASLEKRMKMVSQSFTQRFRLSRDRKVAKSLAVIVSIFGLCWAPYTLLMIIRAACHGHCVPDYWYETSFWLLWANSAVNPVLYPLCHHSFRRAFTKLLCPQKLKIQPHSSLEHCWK

[34] = test system: Rattus norvegicus; assay: Antiallodynic activity against oxaliplatin-induced neuropathic pain Sprague-Dawley rat model assessed as increased mechanical withdrawal threshold at IG administration and measured after 48 hrs; type: functional; settings: po
[35] = test system: Rattus norvegicus; assay: Antiallodynic activity in CCI-induced neuropathic pain Sprague-Dawley rat model assessed as attenuation of mechanical allodynia at 10 to 40 mg/kg, IG pretreated with compound for 1 hrs and measured on day 15 after surgery; type: functional, organism-based; settings: dose 10-40 mg/kg, time 15.0 day
[36] = Hepatotoxicity in rat assessed as increase in serum ALT level at 20 to 40 mg/kg, IG administered for 28 days and measured after 14 days relative to control; type: toxicity, organism-based; settings: in vivo, po, 672 h, dose 20-40 mg/kg, time 28 day
[37] = Hepatotoxicity in rat assessed as change in serum AST level at 10 to 40 mg/kg, IG administered for 28 days and measured after 14 days; type: toxicity, organism-based; settings: in vivo, po, 672 h, dose 10-40 mg/kg, time 28 day
[38] = test system: Rattus norvegicus; assay: Antinociceptive activity against formalin-induced pain in male Sprague-Dawley rat assessed as reduction in nociceptive response at 20 mg/kg, IG pretreated for 5 mins followed by formalin challenge and measured for first 9 mins (phase I); type: functional, organism-based; settings: time 14.0 min
[39] = Half life in male Sprague-Dawley rat at 5 mg/kg, iv measured upto 24 hrs by LC-MS/MS analysis; type: ADME, organism-based; settings: in vivo
[40] = Tmax in male Sprague-Dawley rat at 30 mg/kg, IG measured upto 24 hrs by LC-MS/MS analysis; type: ADME, organism-based; settings: in vivo, po
[41] = test system: Rattus norvegicus; assay: Antiallodynic activity against oxaliplatin-induced neuropathic pain Sprague-Dawley rat model assessed as increased mechanical withdrawal threshold at 10 to 40 mg/kg, IG measured for 48 hrs; type: functional, organism-based; settings: dose 10-40 mg/kg
[42] = test system: Rattus norvegicus; assay: Antinociceptive activity against formalin-induced pain in male Sprague-Dawley rat assessed as reduction in nociceptive response at IG administration pretreated for 5 mins followed by formalin challenge and measured for 9 mins (phase I); type: functional; settings: po, 14 min
[43] = test system: Rattus norvegicus; assay: Antinociceptive activity against formalin-induced pain in male Sprague-Dawley rat assessed as reduction in nociceptive response in phase II at IG administration pretreated for 5 mins followed by formalin challenge and measured after 60 mins; type: functional; settings: po, 1.083 h, time 65 min
[44] = AUC (0 to t) in male Sprague-Dawley rat at 30 mg/kg, IG measured upto 24 hrs by LC-MS/MS analysis; type: ADME, organism-based; settings: in vivo, po

Structure (SMILES): CC(=O)Nc1nc(OCc2ccc(-c3ccccc3)cc2)ccc1N
pEC50 [1]: 3.88

Structure (SMILES): CC(=O)Nc1nc(OCc2ccncc2)ccc1N
pEC50 [1]: 4.45

Structure (SMILES): CC(=O)Nc1nc(OCc2ccc(F)cc2)ccc1N
inhibition [2]: 69.7%
Activity [3]: Active; Higher Value Observed Than Pregabalin
inhibition [4]: < 50%
ED50 ([5]; po, 360 h, time 15 day): 14.9 mg/kg
Activity ([5]; time 15.0 day): Dose-dependent-effect
Activity [6]: Active; Inhibition Of Pain Was Higher Than Pregabalin
clearance [7]: 56.7 mL/min/kg
AUC(0-inf) [8]: 4270 ng·h/mL
Activity [9]: Non-toxic
Activity [10]: Active
Cmax [11]: 3340 ng/mL
Cmax [12]: 2850 ng/mL
CL/F [13]: 120 mL/min/kg
ED50 ([14]; 360 h, time 15 day): 9.63 mg/kg
Activity ([14]; time 15.0 day): Dose-dependent-effect
LD50 at 168 h [15]: 421 mg/kg
Activity ([16]; time 15.0 day): Dose-dependent-effect
ED50 ([16]; po, 360 h, time 15 day): 12 mg/kg
inhibition [17]: 59.5%
Activity [18]: Active; Superior Activity Observed Than Pregabalin
inhibition [19]: < 50%
half-life [20]: 3.5 h
pIC50 [21]: 3.35
inhibition [22]: < 50%
Activity [23]: 184%
LD50 at 168 h [24]: 267 mg/kg
LD50 at 168 h [25]: > 2000 mg/kg
AUC(0-inf) [26]: 1520 ng·h/mL
AUC(0-t) at 24 h [27]: 1100 ng·h/mL
inhibition [28]: < 50%
Activity [29]: Active; Better Activity Than Pregabalin Observed
Activity [30]: Active
bioavailability [31]: 46.7%
Activity [32]: Non-toxic
inhibition [33]: < 50%
pEC50 [1]: 5.99
ED50 [34]: 12.2 mg/kg
Activity [35]: Active
Activity [36]: < 70%
Activity [37]: Non-toxic
Activity [38]: Active
half-life [39]: 12.8 h
Tmax [40]: 0.17 h
Activity [41]: Active
ED50 [42]: 16.2 mg/kg
ED50 [43]: 14.7 mg/kg
AUC(0-t) at 24 h [44]: 4110 ng·h/mL

Structure (SMILES): CC(C)C(=O)Nc1nc(OCc2ccc(F)cc2)ccc1N
pEC50 [1]: 4.74

Structure (SMILES): Nc1ccc(OCc2ccc(F)cc2)cc1NC(=O)C1CC1
pEC50 [1]: 4.52

Structure (SMILES): Nc1ccc(OCc2ccc(F)cc2)nc1NC(=O)C1CCCC1
pEC50 [1]: 3.88

Structure (SMILES): CC(=O)Nc1nc(OC(C)c2ccc(F)cc2)ccc1N (centres undefined)
pEC50 [1]: 4.72

Structure (SMILES): CC(=O)Nc1nc(OCc2ccc3ccccc3c2)ccc1N
pEC50 [1]: 3.72

Structure (SMILES): COc1cccc(COc2ccc(N)c(NC(C)=O)n2)c1
pEC50 [1]: 4.52

Other lines, results leading:

pEC50 [1]: 4.87
Structure (SMILES): COc1ccc(COc2ccc(N)c(NC(C)=O)n2)cc1

pEC50 [1]: 5.05
Structure (SMILES): CC(=O)Nc1nc(OCc2ccc(C(F)(F)F)cc2)ccc1N

pEC50 [1]: 4.86
Structure (SMILES): CCC(=O)Nc1nc(OCc2ccc(F)cc2)ccc1N

pEC50 [1]: 4.90
Structure (SMILES): Nc1ccc(OCc2ccc(F)cc2)nc1N1CCCC1=O
